From PubChem BioAssay AID248 (DTP/NCI, 2004)
Toxic doses and inconclusive results are not listed. Cut-off read from the data, not from the text of the source: active = T/C of 150% or more; inactive = T/C below 125%.

System: L1210 leukemia ip in BDF1 mice, survival T/C
Assay: NCI In Vivo Anticancer Drug Screen. Data for tumor model L1210 Leukemia (intraperitoneal) in B6D2F1 (BDF1) mice
Settings: endpoint: mean survival time, higher = longer survival
How it was run: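 Ratio derived from survival: compound-dosed mice over vehicle-dosed mice, all bearing a transplantable tumor.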

[1] = dose: 100.0 mg/kg/injection, schedule: Q01DX001 (ip), vehicle: saline
[2] = dose: 200.0 mg/kg/injection, schedule: Q01DX001 (ip), vehicle: saline
[3] = dose: 400.0 mg/kg/injection, schedule: Q01DX001 (ip), vehicle: saline
[4] = dose: 100.0 mg/kg/injection, schedule: Q01DX009 (ip), vehicle: saline
[5] = dose: 200.0 mg/kg/injection, schedule: Q01DX009 (ip), vehicle: saline
[6] = dose: 400.0 mg/kg/injection, schedule: Q01DX009 (ip), vehicle: saline
[7] = dose: 100.0 mg/kg/injection, schedule: Q04DX002 (ip), vehicle: saline with Tween-80
[8] = dose: 100.0 mg/kg/injection, schedule: Q01DX009 (ip), vehicle: Klucel (hydroxypropylcellulose) (HPC)
[9] = dose: 200.0 mg/kg/injection, schedule: Q01DX009 (ip), vehicle: Klucel (hydroxypropylcellulose) (HPC)
[10] = dose: 50.0 mg/kg/injection, schedule: Q01DX009 (ip), vehicle: Klucel (hydroxypropylcellulose) (HPC)

Measured: T/C

COc1cc(-c2cc(OC)c(N=N/C(=N/Nc3ccc([N+](=O)[O-])cc3)c3ccc([N+](=O)[O-])cc3)cc2Cl)c(Cl)cc1N=N/C(=N\Nc1ccc([N+](=O)[O-])cc1)c1ccc([N+](=O)[O-])cc1
inactive: dose: 50.0 mg/kg/injection, schedule: Q01DX001 (ip), vehicle: saline 103 % of control | [1] 94 % of control | [2] 103 % of control | [3] 94 % of control

CCOC(=O)/C(Cc1ccc2ccccc2n1)=N/O
inactive: dose: 50.0 mg/kg/injection, schedule: Q01DX009 (ip), vehicle: saline 93 % of control | [4] 98 % of control | dose: 100.0 mg/kg/injection, schedule: Q04DX003 (ip), vehicle: saline 98 % of control | [5] 87 % of control | dose: 200.0 mg/kg/injection, schedule: Q04DX003 (ip), vehicle: saline 96 % of control | dose: 400.0 mg/kg/injection, schedule: Q04DX003 (ip), vehicle: saline 93 % of control

Cc1ccc(S(=O)(=O)N(CCCc2c(Cl)nc(N)nc2Cc2ccccc2)c2ccccc2)cc1
inactive: dose: 100.0 mg/kg/injection, schedule: Q04DX003 (ip), vehicle: gum acacia 97 % of control | dose: 200.0 mg/kg/injection, schedule: Q04DX003 (ip), vehicle: gum acacia 92 % of control | dose: 400.0 mg/kg/injection, schedule: Q04DX003 (ip), vehicle: gum acacia 94 % of control

Clc1ccccc1OCC1CO1 (stereo not drawn)
inactive: dose: 100.0 mg/kg/injection, schedule: Q01DX009 (ip), vehicle: saline with Tween-80 93 % of control | dose: 100.0 mg/kg/injection, schedule: Q04DX003 (ip), vehicle: saline with Tween-80 98 % of control | dose: 200.0 mg/kg/injection, schedule: Q01DX009 (ip), vehicle: saline with Tween-80 100 % of control | dose: 200.0 mg/kg/injection, schedule: Q04DX003 (ip), vehicle: saline with Tween-80 98 % of control | dose: 400.0 mg/kg/injection, schedule: Q01DX009 (ip), vehicle: saline with Tween-80 97 % of control | dose: 400.0 mg/kg/injection, schedule: Q04DX003 (ip), vehicle: saline with Tween-80 103 % of control

COC1/C=C/OC2(C)Oc3c(C)c(O)c4c(O)c(c(/C=N/N(C)c5ncnc6c5ncn6C5OC(CO)C(O)C5O)c(O)c4c3C2=O)NC(=O)C(C)=C/C=C/C(C)C(O)C(C)C(O)C(C)C(OC(C)=O)C1C (stereo not drawn)
inactive: [5] 87 % of control | [6] 94 % of control

Cc1ccc([N+](=O)[O-])cc1NC(=O)Nc1cccc(Cl)c1Cl
inactive: dose: 100.0 mg/kg/injection, schedule: Q04DX002 (ip), vehicle: Klucel (hydroxypropylcellulose) (HPC) 86 % of control | dose: 200.0 mg/kg/injection, schedule: Q04DX002 (ip), vehicle: Klucel (hydroxypropylcellulose) (HPC) 96 % of control | dose: 400.0 mg/kg/injection, schedule: Q04DX002 (ip), vehicle: Klucel (hydroxypropylcellulose) (HPC) 90 % of control

CC(=O)OCCC(CCOC(C)=O)=C1N=C(c2ccccc2)OC1=O
inactive: [4] 97 % of control | dose: 100.0 mg/kg/injection, schedule: Q04DX003 (ip), vehicle: other 101 % of control | [5] 105 % of control | dose: 200.0 mg/kg/injection, schedule: Q04DX003 (ip), vehicle: other 104 % of control | [6] 92 % of control | dose: 400.0 mg/kg/injection, schedule: Q04DX003 (ip), vehicle: other 101 % of control

O=C1CCN(C2(c3ccccc3)CCCCC2)CC1
inactive: dose: 100.0 mg/kg/injection, schedule: Q04DX002 (ip), vehicle: saline 92 % of control | dose: 200.0 mg/kg/injection, schedule: Q04DX002 (ip), vehicle: saline 103 % of control | dose: 400.0 mg/kg/injection, schedule: Q04DX002 (ip), vehicle: saline 97 % of control

CCCCS(=O)(=O)N(CCC)CCC
inactive: [7] 93 % of control | dose: 200.0 mg/kg/injection, schedule: Q04DX002 (ip), vehicle: saline with Tween-80 93 % of control | dose: 400.0 mg/kg/injection, schedule: Q04DX002 (ip), vehicle: saline with Tween-80 97 % of control

O=C1CCCN1Cl
inactive: dose: 100.0 mg/kg/injection, schedule: Q01DX001 (ip), vehicle: saline with Tween-80 96 % of control | dose: 200.0 mg/kg/injection, schedule: Q01DX001 (ip), vehicle: saline with Tween-80 96 % of control | dose: 400.0 mg/kg/injection, schedule: Q01DX001 (ip), vehicle: saline with Tween-80 96 % of control

COc1ccc(NC(=O)Oc2ccc(F)cc2Cl)c(OC)c1
inactive: [8] 97 % of control | [9] 95 % of control | dose: 400.0 mg/kg/injection, schedule: Q01DX009 (ip), vehicle: Klucel (hydroxypropylcellulose) (HPC) 101 % of control

O=C(O)COc1c(Br)cc(Br)cc1Br
inactive: [10] 93 % of control | [8] 96 % of control | [9] 88 % of control

C=CCc1ccc(OC(C)=O)c(OC)c1
inactive: [1] 96 % of control | [2] 98 % of control | [3] 108 % of control

O=C(NCc1ccco1)Nc1ccc([N+](=O)[O-])cc1
inactive: dose: 222.0 mg/kg/injection, schedule: Q01DX Z (ip), vehicle: methylcellulose (MC) 101 % of control | dose: 333.0 mg/kg/injection, schedule: Q01DX Z (ip), vehicle: methylcellulose (MC) 94 % of control | dose: 500.0 mg/kg/injection, schedule: Q01DX Z (ip), vehicle: methylcellulose (MC) 96 % of control

O=C(O)c1ccc(Cl)cc1Cl
inactive: dose: 100.0 mg/kg/injection, schedule: Q04DX002 (ip), vehicle: gum acacia 88 % of control | dose: 200.0 mg/kg/injection, schedule: Q04DX002 (ip), vehicle: gum acacia 98 % of control | dose: 400.0 mg/kg/injection, schedule: Q04DX002 (ip), vehicle: gum acacia 100 % of control

O=C1c2ccccc2-c2oc(=O)c3ccccc3c21
inactive: dose: 50.0 mg/kg/injection, schedule: Q01DX001 (ip), vehicle: carboxymethylcellulose (CMC) 96 % of control | dose: 100.0 mg/kg/injection, schedule: Q01DX001 (ip), vehicle: carboxymethylcellulose (CMC) 96 % of control | dose: 200.0 mg/kg/injection, schedule: Q01DX001 (ip), vehicle: carboxymethylcellulose (CMC) 94 % of control | dose: 400.0 mg/kg/injection, schedule: Q01DX001 (ip), vehicle: carboxymethylcellulose (CMC) 96 % of control

C=C1CC[N+]2(CCCC)CCCC12 (stereo not drawn)
inactive: dose: 12.5 mg/kg/injection, schedule: Q01DX009 (ip), vehicle: Klucel (hydroxypropylcellulose) (HPC) 103 % of control | dose: 25.0 mg/kg/injection, schedule: Q01DX009 (ip), vehicle: Klucel (hydroxypropylcellulose) (HPC) 97 % of control | [10] 95 % of control

CC(=NC(c1ccccc1)c1ccccc1)N(C)C
inactive: [7] 104 % of control

O=C(O)C1C2c3ccccc3C(C1C(=O)O)[n+]1ccccc12 (stereo not drawn)
inactive: [4] 95 % of control | [5] 103 % of control | [6] 94 % of control

CCN(CCCl)c1ccc(/C=C/C2=[N+](C)c3ccccc3C2(C)C)c(C)c1
inactive: dose: 0.78 mg/kg/injection, schedule: Q01DX009 (ip), vehicle: saline 106 % of control | dose: 1.56 mg/kg/injection, schedule: Q01DX009 (ip), vehicle: saline 97 % of control | dose: 3.13 mg/kg/injection, schedule: Q01DX009 (ip), vehicle: saline 112 % of control | dose: 6.25 mg/kg/injection, schedule: Q04DX003 (ip), vehicle: saline 96 % of control | dose: 12.5 mg/kg/injection, schedule: Q04DX003 (ip), vehicle: saline 86 % of control

NC(=O)Nc1cccc(C(F)(F)F)c1
inactive: dose: 75.0 mg/kg/injection, schedule: Q01DX001 (ip), vehicle: carboxymethylcellulose (CMC) 98 % of control | dose: 150.0 mg/kg/injection, schedule: Q01DX001 (ip), vehicle: carboxymethylcellulose (CMC) 102 % of control | dose: 300.0 mg/kg/injection, schedule: Q01DX001 (ip), vehicle: carboxymethylcellulose (CMC) 103 % of control
